Measurements from US20090105225A1, “2-Substituted 4-Benzylphthalazinone Derivatives as Histamine H1 and H3 Antagonists” (GLAXO GROUP LIMITED, priority 2006, published 2009).
Structures can show the parent of a compound that is named as a salt.

Columns and labels:
human H1 receptor = target: T1, human H1 receptor (Homo sapiens, UniProt P35367); assay: Histamine H1 functional antagonist assay (FLIPR): determination of antagonist pA2 and duration; format: cell-based; conditions: at one or more time points; compared with azelastine
T1 construct: expressed in transfected cells
T1 sequence (P35367 whole entry): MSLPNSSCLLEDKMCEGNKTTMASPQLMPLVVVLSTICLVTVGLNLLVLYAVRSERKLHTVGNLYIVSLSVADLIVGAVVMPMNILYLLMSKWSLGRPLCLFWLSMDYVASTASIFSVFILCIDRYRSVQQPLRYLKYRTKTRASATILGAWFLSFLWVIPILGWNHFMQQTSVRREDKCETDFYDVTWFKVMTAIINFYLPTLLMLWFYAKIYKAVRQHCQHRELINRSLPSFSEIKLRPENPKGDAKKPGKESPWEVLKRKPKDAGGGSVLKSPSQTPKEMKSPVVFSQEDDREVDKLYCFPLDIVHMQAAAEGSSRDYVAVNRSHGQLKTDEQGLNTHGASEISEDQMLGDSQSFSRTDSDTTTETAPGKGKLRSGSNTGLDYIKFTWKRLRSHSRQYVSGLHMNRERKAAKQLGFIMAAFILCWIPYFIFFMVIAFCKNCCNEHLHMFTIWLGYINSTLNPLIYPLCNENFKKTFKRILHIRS
Experimental: The human H1 receptor is cloned using known procedures described in the literature [Biochem. Biophys. Res. Commun., 201(2):894 (1994)]. Chinese hamster ovary (CHO) cells stably expressing the human H1 receptor are generated according to known procedures described in the literature [Br. J. Pharmacol., 117(6):1071 (1996)].
The histamine H1 receptor expressing CHO cells are seeded into non-coated black-walled clear bottom 96-well tissue culture plates as described above.
Following overnight culture, growth medium is removed from each well, washed with 200 μl phosphate buffered saline (PBS) and is replaced with 50 μl loading dye (250 μM Brilliant Black, 1 μM Fluo-4 diluted in Tyrodes buffer+probenecid (145 mM NaCl, 2.5 mM KCl, 10 mM HEPES, 10 mM D-glucose, 1.2 mM MgCl2, 1.5 mM CaCl2, 2.5 mM probenecid, pH adjusted to 7.40 with NaOH 1.0 M)). Cells are incubated for 45 min at 37° C. The loading buffer is removed and the cells are washed as above, and 90 μl of Tyrodes buffer+probenecid is added to each well. 10 μl of test compound, diluted to the required concentration in Tyrodes buffer+probenecid (or 10 μl Tyrodes buffer+probenecid as a control) is added to each well and the plate is incubated for 30 min at 37° C., 5% CO2.
The plates are then placed into a FLIPR™ (Molecular Devices, UK) to monitor cell fluorescence (λex=488 nm, λEM=540 nm) in the manner described in Sullivan et al., (In: Lambert D G (ed.), Calcium Signaling Protocols, New Jersey: Humana Press, 1999, 125-136) before and after the addition of 50 μl histamine over a concentration range of 1 mM-0.1 nM. The resultant concentration response curves are analysed by non-linear regression using a standard four parameter logistic equation to determine the histamine EC50, the concentration of histamine required to produce a response of 50% of the maximum response to histamine. The antagonist pA2 is calculated using the following standard equation: pA2=log(DR−1)−log [B] where DR=dose ratio, defined as EC50 antagonist-treated/EC50 control and [B]=concentration of antagonist.
To determine the antagonist duration, cells are cultured overnight in non-coated black-walled clear bottom 96-well tissue culture plates, are washed with PBS and are incubated with a concentration of antagonist chosen to give an approximate DR in the range 30-300. Following the 30 min antagonist incubation period, the cells are washed two or three times with 200 μl of PBS and then 100 μl Tyrodes buffer is added to each well to initiate antagonist dissociation. Following incubation for predetermined times, typically 30-270 min at 37° C., the cells are then washed again with 200 μl PBS and are incubated with 100 μl Tyrodes buffer containing Brilliant Black, probenecid and Fluo-4 for 45 min at 37° C., as described above. After this period, the cells are challenged with histamine in the FLIPR™ as described above. The dose ratio at each time point is used to determine the fractional H1 receptor occupancy by the following equation: fractional receptor occupancy=(DR-1)/DR. The decrease in receptor occupancy over time approximates to a straight line and is analysed by linear regression. The slope of this straight line fit is used as an index of the dissociation rate of the antagonist. The dose ratios for antagonist treated cells and for antagonist treated and washed cells at each time point are used to calculate a relative dose ratio (rel DR) which is also used as an index of antagonist duration. Antagonists with long duration of action produce rel DR values close to 1, and antagonists with short duration of action produce rel DR values that approaches the dose ratio value obtained for antagonist treatment alone.

[1] = CNS penetration (intravenous bolus or steady-state infusion, brain and blood concentration); format: in vivo, rat; conditions: compared with azelastine
Experimental: Compounds are dosed intravenously at a nominal dose level of 1 mg/kg to male CD Sprague Dawley rats. Compounds are formulated in 5% DMSO/45% PEG200/50% water. Blood samples are taken under terminal anaesthesia with isoflurane at 5 min post-dose and the brains are also removed for assessment of brain penetration. Blood samples are taken directly into heparinised tubes. Blood samples are prepared for analysis using protein precipitation and brain samples are prepared using extraction of drug from brain by homogenisation and subsequent protein precipitation. The concentration of parent drug in blood and brain extracts is determined by quantitative LC-MS/MS analysis using compound-specific mass transitions.
A loading dose of the compounds is given to male CD Sprague Dawley rats at a nominal dose level of 0.4 mg/kg. The compounds are then infused intravenously for 4 h at a nominal dose level of 0.1 mg/kg/h. Compounds are formulated in 2% DMSO/30% PEG200/68% water. Serial or terminal blood samples are taken at 0.5, 1.5, 2.5, 3, 3.5 and 4 h post dose. The final blood sample is collected under terminal anaesthesia with isoflurane and the brains are also removed for assessment of brain penetration. Blood samples are taken directly into heparinised tubes. Blood samples are prepared for analysis using protein precipitation and brain samples are prepared using extraction of drug from brain by homogenisation and subsequent protein precipitation. The concentration of parent drug in blood and brain extracts is determined by quantitative LC-MS/MS analysis using compound-specific mass transitions.

[2] = test system: histamine-induced congestion; assay: Intranasal histamine challenge, whole body plethysmography; format: in vivo; conditions: 24 hours after dosing; compared to azelastine; Guinea Pig whole body plethysmography model (FIG. 3)
Experimental: Female Dunkin-Hartley guinea pigs 150-250 g are sensitised twice daily for 5 days (week 1) with ovalbumin (OVA) and aluminium hydroxide (Al(OH)3 or Alum) in physiological saline, 25 μl/nostril. Solution is made up at 20 μg/ml OVA, 180 mg/ml Alum. During weeks 2 and 3, animals receive 25 μl/nostril of OVA (5 mg/ml) once daily. During Week 4 guinea pigs will be entered into study but are continually sensitized as per weeks 2 and 3 until the day before dosing with compound or vehicle.
Pretreatment with test compound is performed at various times prior to histamine challenge. Efficacy dose-response curves are determined 1 h after dosing whereas duration of action is studied up to 7 days post dose. Test compounds are formulated as solutions in 0.9% sterile saline or suspensions in 0.9% sterile saline/tween80. […]
After the stipulated pre-dose time has been reached, guinea pigs are re-anaesthetised with isoflurane and dosed with either 15 mM histamine or phosphate-buffered saline (PBS), (25 μl per nostril). […] Data are analysed using ANOVA with post-hoc Fishers LSD test (general linear models, Statistica®) and finally Hochberg adjustment. Inhibition of histamine-induced congestion is determined by statistically significant differences between the mean responses of compound pre-treated groups compared to the vehicle pre-treated, histamine-challenged group.

SMILES	duration of action in the histamine H1 functional antagonist assay (human H1 receptor)	CNS penetration [1]	inhibition of nasal congestion [2]
COc1ccc(Cc2nn(C[C@H]3CCCN3CCCCc3ccc(OCCCN4CCCCCC4)cc3)c(=O)c3ccccc23)cc1 [Example 7, 2-({(2R)-1-[4-(4-{[3-(Hexahydro-1H-azepin-1-yl)propyl]oxy}phenyl)butyl]-2-pyrrolidinyl}methyl)-4-{[4-(methyloxy)phenyl]methyl}-1(2H)-phthalazinone Diformate]	longer duration of action than azelastine	lower CNS penetration than azelastine	
O=c1c2ccccc2c(Cc2ccc(O)cc2)nn1C[C@H]1CCCN1CCCCc1ccc(OCCCN2CCCCCC2)cc1 [Example 8, 2-({(2R)-1-[4-(4-{[3-(Hexahydro-1H-azepin-1-yl)propyl]oxy}phenyl)butyl]-2-pyrrolidinyl}methyl)-4-[(4-hydroxyphenyl)methyl]-1(2H)-phthalazinone]	longer duration of action than azelastine		
O=c1c2ccccc2c(Cc2ccc(F)cc2)nn1C[C@H]1CCCN1CCCCc1ccc(OCCCN2CCCCCC2)cc1 [Example 9, 4-[(4-Fluorophenyl)methyl]-2-({(2R)-1-[4-(4-{[3-(hexahydro-1H-azepin-1-yl)propyl]oxy}phenyl)butyl]-2-pyrrolidinyl}methyl)-1(2H)-phthalazinone]	longer duration of action than azelastine		
O=c1c2ccccc2c(Cc2ccc(Cl)cc2)nn1C[C@H]1CCCN1CCCOc1ccc2c(c1)CCN(C1CCC1)CC2 [Example 15, 4-[(4-Chlorophenyl)methyl]-2-[((2R)-1-{3-[(3-cyclobutyl-2,3,4,5-tetrahydro-1H-3-benzazepin-7-yl)oxy]propyl}-2-pyrrolidinyl)methyl]-1(2H)-phthalazinone]	longer duration of action than azelastine		
O=c1c2ccccc2c(Cc2ccc(Cl)cc2)nn1C1CCCN(CCCOc2ccc3c(c2)CCN(C2CCC2)CC3)CC1 (centres unmarked) [Example 16, 4-[(4-Chlorophenyl)methyl]-2-(1-{3-[(3-cyclobutyl-2,3,4,5-tetrahydro-1H-3-benzazepin-7-yl)oxy]propyl}hexahydro-1H-azepin-4-yl)-1(2H)-phthalazinone Formate Salt]		comparable CNS penetration to azelastine	
O=C(NCCN1CCCC(n2nc(Cc3ccc(Cl)cc3)c3ccccc3c2=O)CC1)c1ccc2c(c1)CCN(C1CCC1)CC2 (centres unmarked) [Example 18, N-(2-{4-[4-[(4-Chlorophenyl)methyl]-1-oxo-2(1H)-phthalazinyl]hexahydro-1H-azepin-1-yl}ethyl)-3-cyclobutyl-2,3,4,5-tetrahydro-1H-3-benzazepine-7-carboxamide Diformate Salt]	longer duration of action than azelastine		
O=c1c2ccncc2c(Cc2ccc(Cl)cc2)nn1C[C@H]1CCCN1CCCCc1ccc(OCCCN2CCCCCC2)cc1 [Example 23]	longer duration of action than azelastine		
O=c1c2ccccc2c(Cc2ccc(Cl)cc2)nn1C[C@H]1CCCN1CCCCc1ccc(OCCCN2CCCCCC2)cc1 [Example 24, 4-[(4-Chlorophenyl)methyl]-2-({(2R)-1-[4-(4-{[3-(hexahydro-1H-azepin-1-yl)propyl]oxy}phenyl)butyl]-2-pyrrolidinyl}methyl)-1(2H)-phthalazinone Free Base]	significantly longer duration of action than azelastine	lower CNS penetration than azelastine	statistically significant inhibition of nasal congestion
